Measurements: PMC11440035, “Interaction of myricetin, ampelopsin (dihydromyricetin), and their sulfate metabolites with serum albumin, cytochrome P450 (CYP2C9, 2C19, and 3A4) enzymes, and organic anion‐transporting polypeptides (OATP1B1 and OATP2B1)” (Pharmacology Research & Perspectives, 2024)
Several values for one entry are separate records, joined by “and”; a condition that tells them apart may be missing. Identical values can stand only once. Like-named read-outs stand apart in the source and are kept apart here.

Target: T1, OATP2B1 (Homo sapiens, UniProt O94956)
T1 construct: expressed in transfected cells; host or cells: A431
T1 sequence (O94956 1-709): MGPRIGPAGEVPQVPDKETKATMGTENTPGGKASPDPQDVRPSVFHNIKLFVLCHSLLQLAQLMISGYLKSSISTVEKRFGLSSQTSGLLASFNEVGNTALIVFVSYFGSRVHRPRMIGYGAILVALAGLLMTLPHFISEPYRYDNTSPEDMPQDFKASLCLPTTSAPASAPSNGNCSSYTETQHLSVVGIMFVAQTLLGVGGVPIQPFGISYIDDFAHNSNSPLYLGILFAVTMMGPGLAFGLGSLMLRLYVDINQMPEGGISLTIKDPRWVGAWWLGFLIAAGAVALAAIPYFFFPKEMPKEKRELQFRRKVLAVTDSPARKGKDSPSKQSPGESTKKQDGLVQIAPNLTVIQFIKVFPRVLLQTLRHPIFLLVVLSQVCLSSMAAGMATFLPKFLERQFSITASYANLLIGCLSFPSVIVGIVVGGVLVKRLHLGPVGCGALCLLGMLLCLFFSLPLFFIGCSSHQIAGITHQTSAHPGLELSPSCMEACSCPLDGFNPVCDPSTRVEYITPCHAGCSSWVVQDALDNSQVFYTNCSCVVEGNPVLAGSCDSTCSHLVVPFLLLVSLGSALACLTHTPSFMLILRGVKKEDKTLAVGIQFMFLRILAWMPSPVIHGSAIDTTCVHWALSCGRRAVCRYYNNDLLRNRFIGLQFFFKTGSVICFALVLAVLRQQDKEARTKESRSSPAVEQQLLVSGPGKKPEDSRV
Assay: Inhibition of OATP2B1-mediated pyranine uptake in A431 cells
Assay type: cell-based
Details: for inhibition at 15 min, 25 μM: human, A431 cells overexpressing OATP2B1, pH 5.5, probe pyranine, 20 μM, read-out: inhibition / reduction of OATP2B1 transport activity; for inhibition at 15 min, 25 μM / inhibition of OATP2B1 in words: 25 μM flavonoid; for IC50: 15 min, uptake buffer pH 5.5, A431-OATP2B1 cells; for inhibitory strength on OATP2B1 relative to A4′S: ratio of IC50 values
Protocol: Human A431 cells overexpressing OATPs (OATP1B1 or OATP2B1) and their mock‐transfected controls were established earlier.[42], [43] The cells were maintained at 37°C with 5% CO2 in Dulbecco's Modified Eagle Medium (DMEM; Thermo Fischer Scientific, Waltham, MA, USA) supplemented with fetal bovine serum (10%), L‐glutamine (2 mM), penicillin (100 units/mL) and streptomycin (100 μg/mL).
The inhibitory impacts of MYR, AMP, and their sulfate metabolites on OATP1B1 and OATP2B1 were examined using the fluorescent dye substrates disulfopyrene (6,8‐dihydroxy‐1,3‐disulfopyrene) and pyranine, respectively.[42], [43] The day before the transport measurements, A431 cells overexpressing OATP1B1 or OATP2B1 (and their mock‐transfected controls) were seeded onto 96‐well plates at a density of 80 000 cells/well in DMEM (200 μL). Next day, the medium was removed, the cells were washed three times with PBS (pH 7.4, 200 μL) at room temperature, then the cells were pre‐incubated with 50 μL of Hank's Balanced Salt Solution (HBSS, pH 7.4; OATP1B1) or uptake buffer (pH 5.5; OATP2B1) for 5 min at 37°C with or without the flavonoids.[43] The transport reaction was started by adding 50 μL of disulfopyrene‐containing (final concentration: 10 μM) HBSS (OATP1B1 assay), or pyranine‐containing (final concentration: 20 μM) uptake buffer (OATP2B1 assay). After 10 min (OATP1B1) or 15 min (OATP2B1), the transport was stopped by removing the supernatant and washing the cells three times with ice‐cold PBS (200 μL). Then the fluorescence was measured in 200 μL of PBS using an Enspire plate reader (PerkinElmer, Waltham, MA, US) at excitation and emission wavelengths of 460/510 nm. OATP‐dependent transport was determined by subtracting the fluorescence detected in mock control cells from that of OATP‐expressing cells. Transport activity was measured based on the fluorescence signal in the absence of flavonoids (100%).

[1] = pyranine 20 μM, read-out: IC50, OATP2B1

O=C1c2c(O)cc(O)cc2OC(c2cc(O)c(OS(=O)(=O)O)c(O)c2)C1O (stereo not drawn) [A4′S, ampelopsin‐4′‐O‐sulfate]
inhibition at 15 min, 25 μM: 90% | IC50 [1]: 2150 nM and 2200 nM

O=C1c2c(O)cc(O)cc2O[C@H](c2cc(O)c(O)c(O)c2)[C@H]1O [AMP, ampelopsin]
inhibition at 15 min, 25 μM: ~70%

O=c1c(O)c(-c2cc(O)c(O)c(OS(=O)(=O)O)c2)oc2cc(O)cc(O)c12 [M3′S, myricetin‐3′‐O‐sulfate]
inhibition of OATP2B1 in words: almost completely blocked | IC50 [1]: 290 nM and 300 nM | inhibitory strength on OATP2B1 relative to A4′S: seven‐fold

O=c1c(O)c(-c2cc(O)c(O)c(O)c2)oc2cc(O)cc(O)c12 [MYR, myricetin]
inhibition of OATP2B1 in words: almost completely blocked | IC50 (IC50, OATP2B1, pyranine 20 μM): 430 nM and 400 nM | inhibitory strength on OATP2B1 relative to A4′S: five‐fold
